Measured values reported in the CheMixHub viscosity set.

Assay: xn = mol fraction of the nth substance listed

COCOCOCOCOC + COCOCOC
100 kPa
Details	viscosity [mPa·s]
298.15 K, x2 = 0.65	1.125
303.15 K, x2 = 0.12	1.575

COCOCOCOCOC + COCOCOCOC
Details	viscosity [mPa·s]
293.15 K, 100 kPa, x2 = 0.12	1.895

Clc1cccc2ccccc12 + COc1ccccc1
viscosity [mPa·s], 101.33 kPa
Details	x1 = 0.0985	x1 = 0.1969	x1 = 0.2977	x1 = 0.3974	x1 = 0.4997	x1 = 0.5959	x1 = 0.6962	x1 = 0.7827	x1 = 0.8985
298.15 K	1.025	1.116	1.262	1.409	1.568	1.72	1.896	2.096	2.425
303.15 K	0.946	1.045	1.159	1.291	1.43	1.566	1.724	1.891	2.18
308.15 K	0.878	0.966	1.069	1.185	1.312	1.431	1.57	1.717	1.973

Clc1ccccc1 + COc1ccccc1
Details	viscosity [mPa·s]
293.15 K, 101.33 kPa, x2 = 0.0976	0.8705
293.15 K, 101.33 kPa, x2 = 0.1922	0.8967
293.15 K, 101.33 kPa, x2 = 0.2893	0.9253
293.15 K, 101.33 kPa, x2 = 0.3873	0.9512
293.15 K, 101.33 kPa, x2 = 0.493	0.9898
293.15 K, 101.33 kPa, x2 = 0.5987	0.967
293.15 K, 101.33 kPa, x2 = 0.7059	1.007
293.15 K, 101.33 kPa, x2 = 0.7916	1.072
293.15 K, 101.33 kPa, x2 = 0.905	1.107
298.15 K, 101 kPa, x2 = 0.0994	0.7921
298.15 K, 101 kPa, x2 = 0.2	0.8143
298.15 K, 101 kPa, x2 = 0.2957	0.8336
298.15 K, 101 kPa, x2 = 0.3982	0.8576
298.15 K, 101 kPa, x2 = 0.5028	0.88
298.15 K, 101 kPa, x2 = 0.6002	0.9024
298.15 K, 101 kPa, x2 = 0.7006	0.9275
298.15 K, 101 kPa, x2 = 0.7995	0.9474
298.15 K, 101 kPa, x2 = 0.8997	0.9779
298.15 K, 101.33 kPa, x2 = 0.0976	0.8217
298.15 K, 101.33 kPa, x2 = 0.1922	0.8474
298.15 K, 101.33 kPa, x2 = 0.2893	0.8642
298.15 K, 101.33 kPa, x2 = 0.3873	0.8824
298.15 K, 101.33 kPa, x2 = 0.493	0.9356
298.15 K, 101.33 kPa, x2 = 0.5987	0.9051
298.15 K, 101.33 kPa, x2 = 0.7059	0.9242
298.15 K, 101.33 kPa, x2 = 0.7916	0.9965
298.15 K, 101.33 kPa, x2 = 0.905	1.037
303.15 K, 101 kPa, x2 = 0.0864	0.7392
303.15 K, 101 kPa, x2 = 0.0994	0.7495
303.15 K, 101 kPa, x2 = 0.1933	0.7667
303.15 K, 101 kPa, x2 = 0.2	0.7657
303.15 K, 101 kPa, x2 = 0.2875	0.79
303.15 K, 101 kPa, x2 = 0.2957	0.785
303.15 K, 101 kPa, x2 = 0.3805	0.8112
303.15 K, 101 kPa, x2 = 0.3982	0.8026
303.15 K, 101 kPa, x2 = 0.4904	0.8348
303.15 K, 101 kPa, x2 = 0.5028	0.8232
303.15 K, 101 kPa, x2 = 0.5826	0.8538
303.15 K, 101 kPa, x2 = 0.6002	0.8438
303.15 K, 101 kPa, x2 = 0.6914	0.8755
303.15 K, 101 kPa, x2 = 0.7006	0.8635
303.15 K, 101 kPa, x2 = 0.779	0.8922
303.15 K, 101 kPa, x2 = 0.7995	0.8808
303.15 K, 101 kPa, x2 = 0.8905	0.9132
303.15 K, 101 kPa, x2 = 0.8997	0.9091
308.15 K, 101 kPa, x2 = 0.0994	0.7047
308.15 K, 101 kPa, x2 = 0.2	0.7212
308.15 K, 101 kPa, x2 = 0.2957	0.7354
308.15 K, 101 kPa, x2 = 0.3982	0.7535
308.15 K, 101 kPa, x2 = 0.5028	0.7693
308.15 K, 101 kPa, x2 = 0.6002	0.7866
308.15 K, 101 kPa, x2 = 0.7006	0.8038
308.15 K, 101 kPa, x2 = 0.7995	0.8201
308.15 K, 101 kPa, x2 = 0.8997	0.8444
313.15 K, 101 kPa, x2 = 0.0994	0.6642
313.15 K, 101 kPa, x2 = 0.2	0.6768
313.15 K, 101 kPa, x2 = 0.2957	0.6921
313.15 K, 101 kPa, x2 = 0.3982	0.7064
313.15 K, 101 kPa, x2 = 0.5028	0.7227
313.15 K, 101 kPa, x2 = 0.6002	0.7366
313.15 K, 101 kPa, x2 = 0.7006	0.7511
313.15 K, 101 kPa, x2 = 0.7995	0.7649
313.15 K, 101 kPa, x2 = 0.8997	0.7855

CCCCn1cc[n+](C)c1.F[P-](F)(F)(F)(F)F + CS(C)=O
Details	viscosity [mPa·s]
298.15 K, 101 kPa, x1 = 0.7812	117.5

Clc1ccccc1 + CS(C)=O
viscosity [mPa·s]
Details	298.15 K	299 K	308.15 K	318.15 K
101 kPa, x2 = 0.0871	–	1.227	–	–
101 kPa, x2 = 0.2483	–	1.401	–	–
101 kPa, x2 = 0.462	–	1.715	–	–
101 kPa, x2 = 0.5887	–	2.067	–	–
101 kPa, x2 = 0.7046	–	2.357	–	–
101 kPa, x2 = 0.8612	–	2.819	–	–
101.3 kPa, x1 = 0.035	1.865	–	1.559	1.273
101.3 kPa, x1 = 0.072	1.803	–	1.474	1.224
101.3 kPa, x1 = 0.148	1.682	–	1.39	1.142
101.3 kPa, x1 = 0.23	1.564	–	1.29	1.098
101.3 kPa, x1 = 0.317	1.421	–	1.17	1.021
101.3 kPa, x1 = 0.411	1.299	–	1.077	0.927
101.3 kPa, x1 = 0.511	1.193	–	0.986	0.865
101.3 kPa, x1 = 0.619	1.085	–	0.929	0.833
101.3 kPa, x1 = 0.736	0.966	–	0.823	0.742
101.3 kPa, x1 = 0.863	0.866	–	0.733	0.668
101.3 kPa, x1 = 0.936	0.826	–	0.704	0.643
101.33 kPa, x2 = 0.1	0.826	–	0.738	0.656
101.33 kPa, x2 = 0.2	0.905	–	0.807	0.709
101.33 kPa, x2 = 0.3	0.993	–	0.88	0.769
101.33 kPa, x2 = 0.4	1.094	–	0.958	0.832
101.33 kPa, x2 = 0.5	1.206	–	1.043	0.902
101.33 kPa, x2 = 0.6	1.329	–	1.136	0.981
101.33 kPa, x2 = 0.7	1.466	–	1.239	1.068
101.33 kPa, x2 = 0.8	1.616	–	1.361	1.165
101.33 kPa, x2 = 0.9	1.784	–	1.5	1.274
